Laboratory results published in PMC10304470, “Characterization of the Antimicrobial Activities of Trichoplusia ni Cecropin A as a High-Potency Therapeutic against Colistin-Resistant Escherichia coli” (Pharmaceutics, 2023).
Peptide text beside a SMILES is read from it.

How the values were obtained:
[1] = tested on: ColREC 1557-stimulated RAW 264.7 cells; assay: Nitrite (NO) production in ColREC 1557-infected macrophages; type: cell-based, mouse; conditions: 1.3 μM peptide, 1 h before ColREC 1557 infection
Experimental: (§1) To investigate the inflammatory response induced by ColREC 1557, RAW 264.7 cells (1 × 10^5 cells/well) were treated with various concentrations of peptide (0.6 to 10 μM) 1 h before bacterial infection. The control was an untreated cell. ColREC 1557 that had been cultured in LB broth overnight and sub-cultured to the exponential phase were harvested, suspended in DMEM, and used to infect RAW 264.7 cells to a final concentration of 1 × 10^5 cells/well. Subsequent nitrite and IL-6 detection was performed as described in Section 2.15.

[2] = tested on: LPS-stimulated RAW 264.7 cells; assay: Nitrite (NO) production in LPS-stimulated macrophages, Griess; type: cell-based, mouse; conditions: 5 μM peptide, 1 h pretreatment, 20 ng/mL LPS, 16 h
Experimental: Murine macrophage RAW 264.7 cells were used to measure the anti-inflammatory activities of peptides. Culture plates (96-well) were seeded at a density of 1 × 10^5 cells/well and stimulated with 20 ng/mL LPS (O111:B4; Sigma-Aldrich) for 16 h after 1 h pretreatment with each concentration of peptide (0.6 to 10 μM). The control is an untreated cell. The culture supernatant was added to an equal volume of Griess reagent (Sigma-Aldrich), and the absorbance was measured at 540 nm. Nitrite production was quantified using a standard curve constructed using NaNO2.

[3] = tested on: ColREC 12; assay: Biofilm inhibition assay, crystal violet; type: cell-based, Escherichia coli; conditions: ColREC 12, 2 μM peptide, 16 h
Experimental: To quantify the biofilm inhibitory activity of each peptide, ColREC 1557 and ColREC 12 were cultured in Luria–Bertani (LB) broth overnight and then sub-cultured in MH broth. Different concentrations of peptide (from 1 μM to 64 μM) were prepared in 96-well plates using MH broth (containing 0.2% glucose) and incubated with bacteria (2 × 10^5 cells/mL) at 37 °C for 16 h. After incubation, the culture medium was removed and methanol was added as a fixative for 15 min. The completely dried plates were stained for 2 h by adding 100 μL of staining solution (0.1% (w/v) crystal violet in 0.25% (v/v) acetic acid). The residual staining solution was gently rinsed off three times using distilled water. Subsequently, 90% ethanol was used to dissolve the dye, and absorbance was measured at 600 nm. The untreated bacterial group was used as a control to compare biofilm production rates.

[4] = tested on: ColREC 1557-stimulated RAW 264.7 cells; assay: IL-6 secretion in ColREC 1557-infected macrophages, ELISA; type: cell-based, mouse; conditions: 1.3 μM peptide, 1 h before ColREC 1557 infection
Experimental: Interleukin-6 (IL-6)-specific enzyme-linked immunosorbent assays (ELISA; R&D Systems, Minneapolis, MN, USA) were performed according to the method specified by the manufacturer. Briefly, cell culture supernatants were added to immune plates treated with the capture antibody, followed by the detection antibody and streptavidin-horseradish peroxidase. For each step, the plates were washed twice with PBS containing 0.05% Tween 20. The plates were incubated with tetramethylbenzidine substrate (Invitrogen, Carlsbad, CA, USA), and the reaction was stopped with 2 N H2SO4 to measure absorbance at 450 nm. A standard graph of each marker was plotted and quantified.
as §1

[5] = tested on: Klebsiella pneumoniae (NCCP 16054); type: cell-based; conditions: NCCP 16054, 16 h
Excerpt: (§2) E. coli (KCTC 1682) was obtained from the Korean Collection for Type Cultures (KCTC, Jeongeup, Republic of Korea), and Acinetobacter baumannii (KCCM 40203) and Pseudomonas aeruginosa (KCCM 11328) from the Korea Culture Center of Microorganisms (KCCM, Seoul, Republic of Korea). Klebsiella pneumoniae (NCCP 16054), colistin-resistant E. coli NMA 1557 (ColREC 1557), NMS 12 (ColREC 12), and colistin-resistant A. baumannii NMS 1915 (ColRAB 1915), as well as colistin-resistant K. pneumoniae NMS 139 (ColRKP 139), were obtained from the National Institute of Health Multidrug Resistant Bacteria Specialized Pathogen Resources Bank (Osong, Republic of Korea).
(§3) The antibacterial abilities of the peptides (T. ni cecropin, cecropin A, polymyxin B, colistin, and melittin) were determined using the broth dilution method as previously reported. The peptides dissolved at 10 mg/mL in deionized water were serially diluted from 64 μM to 0.5 μM in 96-well plates using Mueller–Hinton (MH) broth, and bacteria cultured to exponential growth were added at 2 × 10^5 cells/mL. The group of bacteria that grew untreated in the broth was set as the positive control, and the uninoculated broth as the negative control. Dissolved peptides are colorless and equal to the OD value of the medium only. After 16 h incubation at 37 °C, the absorbance at 600 nm was measured using a SpectraMAX microplate reader (Molecular Devices, San Jose, CA, USA).

[6] = tested on: Acinetobacter baumannii (KCCM 40203); type: cell-based; conditions: KCCM 40203, 16 h
Excerpt: as §2, §3

[7] = tested on: Pseudomonas aeruginosa (KCCM 11328); type: cell-based; conditions: KCCM 11328, 16 h
Excerpt: as §2, §3

In the case of CC[C@H](C)CCCCC(=O)N[C@@H](CCN)C(=O)N[C@H](C(=O)N[C@@H](CCN)C(=O)N[C@H]1CCNC(=O)[C@H]([C@@H](C)O)NC(=O)[C@H](CCN)NC(=O)[C@H](CCN)NC(=O)[C@H](CC(C)C)NC(=O)[C@@H](CC(C)C)NC(=O)[C@H](CCN)NC1=O)[C@@H](C)O [colistin] (HELM PEPTIDE1{[CC[C@H](C)CCCCC(=O)[*:2]].[Dab].T.[Dab].[Dab].[Dab].[dL].L.[Dab].[Dab].T}$PEPTIDE1,PEPTIDE1,5:R3-11:R2$$$V2.0; N-terminus assumed; bridges inferred), the “inhibition of NO” value [1] is reported as 24.7%, the “inhibition of NO” value [2] is reported as “over 90%” and the “inhibition of biofilm formation” value [3] is reported as 28.9%. The “inhibition of IL-6” value [4] was 18.4%, the “Minimal Inhibitory Concentration” value [5] was 0.25 µM and the “Minimal Inhibitory Concentration” value [6] was 0.25 µM. The “Minimal Inhibitory Concentration” value [7] was 1 µM.
